Laboratory results reported in US8207217B2 (Apotex Technologies Inc, priority 2007, dated 2012).

How the values were obtained:
[1] = oral drug in traditional tablet or capsule form; cited from earlier work
[2] = Speciation plot / pH of aqueous solution (Hyperquad Simulation & Speciation, experimentally determined pKas); type: physicochemical
Excerpt: We have determined that an advantageous salt for use in pharmaceutical preparations is the mono-sodium salt of the D-isoglutamyl-D-tryptophan, which can be formally represented by formula III, which is the predominant pharmaceutical salt at neutral pH. This takes advantage of the fact that the amino acid is a zwitterion. We have determined that the mono-sodium salt as shown in formula III is the most preferred salt in pharmaceutical preparations. The di-sodium salt of formula II is the predominant species at a pH of about 12 or above. A solution of di-sodium salt in water will have a pH of about 12 and therefore it is unsuitable for use in a liquid formulation. Adjustment of a solution of the di-sodium salt back to a pH of about 7 to about 7.4, in fact produces the mono-sodium salt as the predominant species in solution.
FIG. 1 is a speciation plot of the dipeptide H-D-iGlu-D-Trp-OH and its salt calculated with the software Hyperquad Simulation & Speciation using experimentally determined pKas of the acid and amine groups. LH2=H-D-iGlu-D-Trp-OH in diacid form represented by a compound of formula I, LH=mono carboxylic acid salt such as the mono-sodium salt represented by a compound of formula III, L=dicarboxylic acid salt such as the di-sodium salt represented by a compound of formula II, LH3=acid addition salt of H-D-iGlu-D-Trp-OH such as the mono hydrochloride salt of a compound of formula I wherein the NH2 is protonated. The X axis provides the pH of the solution. The Y axis reports the molar fraction of the species present at a particular pH. Note: % formation relative to L is the default terminology of the software. The concentration of 0.5M is used to reflect the equivalency of 1 gm of thymodepressin in 6 ml water during isolation purposes.
Depending on its concentration, the pH of a solution of di-sodium salt is more than about 8.2. A solution containing 100% of the di-sodium salt has pH of greater than about 11.5 as per speciation plot (FIG. 1). The high pH is unsuitable for dosing to human as a solution. pH adjustment from about 7.2 to about 7.4 with mineral acid introduces additional salt, for example, sodium chloride into the formulation.

[3] = Solubility in water; type: physicochemical
Protocol: A solution of D-isoglutamyl-D-tryptophan and sodium hydroxide in water is prepared by adding solid D-isoglutamyl-D-tryptophan to sodium hydroxide solution. […] Sodium hydroxide is chosen based on the convenience in obtaining sodium hydroxide solution, however other sodium bases such as sodium hydride, sodium carbonate, sodium bicarbonate can be used. These chemicals are obvious chemical equivalents to sodium hydroxide for step (a) of the process. In step (b), the solution is filtered to remove any particulates prior to proceeding to step (c).

[4] = Hygroscopicity of the solid in air; type: physicochemical
Protocol: A powdery or amorphous form of a compound, intended for pharmaceutical use may give rise to manufacturing problems due to bulk density issues, hygroscopicity and variable water content that cannot be corrected by vacuum drying. D-isoglutamyl-D-tryptophan is a dipeptide and the drying of an amorphous form at elevated temperature, for example, 80-100° C. under vacuum is not recommended. Thus, there are serious difficulties experienced during the purification of the di-sodium salt of D-isoglutamyl-D-tryptophan and obtaining the pure di-sodium salt on a manufacturing scale. Further, as discussed above, there is no published procedure for its preparation.

fraction present in the mono-sodium salt form ([2]; in water at a pH of about 7.0 to about 7.4, 0.5M)	solubility in water [3] [mg per ml]	pH of a solution containing 100% of the di-sodium salt ([2]; as per speciation plot (FIG. 1))	pH of a solution ([2]; depending on its concentration)	pH of a solution in water ([2]; solution of di-sodium salt in water)	hygroscopicity ([4]; solid form)	Molecule	oral bioavailability [1]	behaviour of the freeze-dried solid in air ([4]; freeze-dried)
about 100%	< 20	–	–	–	–	N[C@H](CCC(=O)N[C@H](Cc1c[nH]c2ccccc12)C(=O)O)C(=O)O [D-isoglutamyl-D-tryptophan]	not bioavailable	–
–	–	greater than 11.5	more than 8.2	about 12	extremely hygroscopic	di-sodium salt of D-isoglutamyl-D-tryptophan	–	turning into a gel in a matter of minutes in air
